Assay results published in patent US20260083674A1, “OXAZOLIDINONE LIPOSOME COMPOSITIONS” (priority 2021, published 2026).
≈ marks a conversion by molar mass, not a printed value. Read-outs that look alike come from different tables or passages of the source.

System: M. tuberculosis MDR strains M70, M28, M94, M14, TN5904 and H37Rv
Experiment: microbe, parasite or virus in culture
Type: cell-based, Mycobacterium tuberculosis
Settings: for MIC, μg/mL in M. tuberculosis strain: M14: MDR strain M14, MABA assay; for MIC, μg/mL in M. tuberculosis strain: M28: MDR strain M28, MABA assay; for MIC, μg/mL in M. tuberculosis strain: M70: MDR strain M70, MABA assay; for MIC, μg/mL in M. tuberculosis strain: M94: MDR strain M94, MABA assay; for MIC, μg/mL in M. tuberculosis strain: TN5904: MDR strain TN5904, MABA assay; for MIC, μg/mL in M. tuberculosis strain: H37Rv: drug-susceptible strain H37Rv, MABA assay; for MIC: Mycobacterium tuberculosis, H37RV
[1] = read-out: MIC, μg/mL in M. tuberculosis strain: M94
[2] = read-out: MIC, μg/mL in M. tuberculosis strain: M28

## NNC(=O)c1ccncc1 [INH]
  MIC, μg/mL in M. tuberculosis strain: M14: >2 µg/mL
  MIC, μg/mL in M. tuberculosis strain: M28: >2 µg/mL
  MIC, μg/mL in M. tuberculosis strain: M70: >2 µg/mL
  MIC, μg/mL in M. tuberculosis strain: M94: >2 µg/mL
  MIC, μg/mL in M. tuberculosis strain: TN5904: 2 µg/mL (≈ 14.6 µM)
  MIC, μg/mL in M. tuberculosis strain: H37Rv: 0.06 µg/mL (≈ 0.438 µM)

## CC(=O)NC[C@H]1CN(c2ccc(-c3ccc(-c4nnn(CCN(C)C)n4)nc3)c(F)c2)C(=O)O1 [AKG-38]
read-out: MIC, μg/mL in M. tuberculosis strain: TN5904
  MIC: 0.03 µg/mL (≈ 0.064 µM)

## CN[C@@H]1[C@H](O[C@H]2[C@H](O[C@H]3[C@H](O)[C@@H](O)[C@H](N=C(N)N)[C@@H](O)[C@@H]3N=C(N)N)O[C@@H](C)[C@]2(O)C=O)O[C@@H](CO)[C@H](O)[C@H]1O [STR]
  MIC, μg/mL in M. tuberculosis strain: M14: >8 µg/mL
  MIC, μg/mL in M. tuberculosis strain: M28: 0.125 µg/mL (≈ 0.215 µM)
  MIC, μg/mL in M. tuberculosis strain: M70: 2 µg/mL (≈ 3.44 µM)
  MIC, μg/mL in M. tuberculosis strain: M94: >8 µg/mL
  MIC, μg/mL in M. tuberculosis strain: TN5904: 1 µg/mL (≈ 1.72 µM)
  MIC, μg/mL in M. tuberculosis strain: H37Rv: 0.5 µg/mL (≈ 0.86 µM)

## COc1c(N2C[C@@H]3CCCN[C@@H]3C2)c(F)cc2c(=O)c(C(=O)O)cn(C3CC3)c12 [MOX]
[1]
  MIC: 0.125 µg/mL (≈ 0.311 µM)

## Cl.Cl.NCCn1nnc(-c2ccc(-c3ccc(N4C[C@H](CN)OC4=O)cc3F)cn2)n1 [AKG-29]
[2]
  MIC: 0.125 µg/mL
[1]
  MIC: 0.125 µg/mL

## CO[C@H]1/C=C/O[C@@]2(C)Oc3c(C)c(O)c4c(O)c(c(/C=N/N5CCN(C)CC5)c(O)c4c3C2=O)NC(=O)/C(C)=C\C=C\[C@H](C)[C@H](O)[C@@H](C)[C@@H](O)[C@@H](C)[C@H](OC(C)=O)[C@@H]1C [RIF]
  MIC, μg/mL in M. tuberculosis strain: M14: 0.06 µg/mL (≈ 0.0729 µM)
  MIC, μg/mL in M. tuberculosis strain: M28: >8 µg/mL
  MIC, μg/mL in M. tuberculosis strain: M70: >8 µg/mL
  MIC, μg/mL in M. tuberculosis strain: TN5904: >8 µg/mL
  MIC, μg/mL in M. tuberculosis strain: H37Rv: 0.06 µg/mL (≈ 0.0729 µM)

## Cn1nnc(-c2ccc(-c3ccc(N4C[C@H](CN)OC4=O)cc3F)cn2)n1 [AKG-3]
[2]
  MIC: 0.06 µg/mL (≈ 0.162 µM)
[1]
  MIC: 0.06 µg/mL (≈ 0.162 µM)
